Measured values taken from patent publication US20150258106A1, “METHODS FOR ACUTE AND LONG-TERM TREATMENT OF SUBSTANCE ABUSE” (DEMERX, INC., priority 2014, published 2015).
Entries after “also recorded” stand apart in the source; their conditions may differ. Where two headings read alike, the source gives them in different places.

Key:
Type in all cases: in vivo, human
[1] = test system: healthy, drug-free male volunteers; experiment: Cold pressor test (analgesic effect) in healthy volunteers
Experimental: Summary statistics (means, standard deviations, and coefficients of variation) were determined for each dose group for safety laboratory test data, ECG and pharmacokinetic parameters, and pharmacodynamic variables. Categorical variables were analysed using counts and percentages. Dose-proportionality of AUC and Cmax was assessed using linear regression. The effect of dose on pharmacodynamic parameter values over time was assessed using two-factor analysis of variance (ANOVA). Pairwise comparisons (with Tukey-Kramer adjustment) between each dose group to the placebo were conducted at each time point using the least squares estimates obtained from the ANOVA, using SAS Proc Mixed (SAS ver 6.0).
Analgesic effect was assessed based on duration of hand immersion in ice water and on visual analog scale (VAS) pain scores upon hand removal from the water bath.
(§1) Safety and tolerability of noribogaine were tested in the group of volunteers from Example 1. […] Safety evaluations included clinical monitoring, recording of adverse events (AEs), safety laboratory tests, vital signs, ECG telemetry from −2 h to 6 h after dosing, and 12-lead electrocardiograms (ECGs) up to 216 hours post-dosing.

[2] = test system: healthy, drug-free male volunteers; experiment: Safety and tolerability of noribogaine in healthy humans (adverse events, vital signs, ECG)
Experimental: Pulse oximetry and capnography data were collected continuously using a GE Carescape B650 monitoring system from 2 hours prior to dosing and until six hours after dosing, and thereafter at 12, 24, 48 and 72 hours post-dosing. […] Pupillary miosis was assessed by pupillometry.
as §1

[3] = Pharmacokinetics in opioid-dependent patients (Phase IB study); conditions: for AUC(0-t) / AUC / half-life / Tmax / Vd/F / Cmax: human, serum, opioid-dependent patients
Experimental: Three cohorts of nine (9) subjects (6 administered noribogaine and 3 administered placebo in each cohort) were evaluated for tolerability, pharmacokinetics, and efficacy. Cohort 1 received a single dose of 60 mg noribogaine or placebo. Cohort 2 received a single dose of 120 mg noribogaine or placebo. Cohort 3 received a single dose of 180 mg noribogaine or placebo. […] Headaches were frequent in the placebo and 60 mg noribogaine treatment groups, but were attenuated in the 120 mg and 180 mg dose groups.

[4] = test system: opioid-dependent participants; experiment: Opiate withdrawal scales (COWS, SOWS, OOWS) in opioid-dependent participants
Experimental: Patients were evaluated based on the Clinical Opiate Withdrawal Scale (COWS), Subjective Opiate Withdrawal Scale (SOWS), and Objective Opiate Withdrawal Scale (OOWS) scoring systems over the period of time between administration of noribogaine (or placebo) until resumption of OST. These scales are outlined in Guidelines for the Psychosocially Assisted Pharmacological Treatment of Opioid Dependence, World Health Organization, Geneva (2009), Annex 10, which is incorporated herein by reference in its entirety. The scales measure the intensity of withdrawal symptoms, based on clinical, subjective, and objective indicia.

## CCC1CC2CC3c4[nH]c5ccc(O)cc5c4CCN(C2)C13 (stereo not drawn) [Noribogaine]
[1]; after adjusting for baseline differences, p=0.17
  VAS pain scores upon hand removal, each dose group compared with placebo by ANOVA: no statistically significant differences
[1]; after adjusting for baseline differences, p>0.9
  duration of hand immersion in ice water, each dose group compared with placebo by ANOVA: no statistically significant differences
[1]; healthy volunteers, 3-60 mg single oral dose
  analgesic effect in the cold pressor test: no analgesic effect
[2]; healthy volunteers, 3 mg dose
  adverse events, Mild: Back pain; also recorded: Dizziness; also recorded: Epistaxis; also recorded: Headache
  adverse events, Moderate: Headache
[2]; healthy volunteers, 3 mg dose group
  number of adverse events reported: five adverse events were reported by two subjects
[2]; healthy volunteers, 10 mg dose
  adverse events, Mild: Headache
[2]; healthy volunteers, 10 mg dose group, single subject
  number of adverse events reported: one adverse event
[2]; healthy volunteers, 30 mg dose
  adverse events, Mild: Headache
[2]; healthy volunteers, 30 mg dose group, single subject
  number of adverse events reported: one adverse event
[2]; healthy volunteers, 3-60 mg
  oximetry, capnography, respiratory rate: no changes in oximetry or capnography, or changes in respiratory rate
  vital signs and safety laboratory tests: no changes in vital signs or safety laboratory tests of note
[2]; healthy volunteers, all groups, all resolved prior to study completion
  intensity of adverse events: mild-moderate intensity
[2]; healthy volunteers, at any time
  QTcF values: ≤ 500 ms
[2]; one subject dosed with 10 mg, at 24 hours post-dosing
  single increase in QTcF: > 60 ms
[3]; 60 mg, Cohort 1 (60 mg), mean ± SD, read-out: AUC(0-T)
  AUC(0-t): 2020 ± 614 ng·h/mL
[3]; 60 mg, Cohort 1 (60 mg), mean ± SD, read-out: AUC(0-¥)
  AUC: 2060 ± 609 ng·h/mL
[3]; 60 mg, Cohort 1 (60 mg), mean ± SD, read-out: Half-life (converted)
  half-life: 29.3 ± 7.28 h
[3]; 60 mg, Cohort 1 (60 mg), mean ± SD, read-out: Tmax
  Tmax: 3.59 ± 0.92 h
[3]; 60 mg, Cohort 1 (60 mg), mean ± SD, read-out: Vd/F
  Vd/F: 1440 ± 854 L
[3]; 60 mg, Cohort 1 (60 mg), range, read-out: AUC(0-T) [range]
  AUC(0-t): 1090 to 2530 ng·h/mL
[3]; 60 mg, Cohort 1 (60 mg), range, read-out: AUC(0-¥) [range]
  AUC: 1120 to 2550 ng·h/mL
[3]; 60 mg, Cohort 1 (60 mg), range, read-out: Half-life [range]
  half-life: 18.3 to 37.3 h
[3]; 60 mg, Cohort 1 (60 mg), range, read-out: Tmax [range]
  Tmax: 2.5 to 5 h
[3]; 60 mg, Cohort 1 (60 mg), range, read-out: Vd/F [range]
  Vd/F: 620 to 2770 L
[3]; 60 mg, Cohort 1 (60 mg), mean ± SD, read-out: Cmax
  Cmax: 81.6 ± 23.8 ng/mL
[3]; 60 mg, Cohort 1 (60 mg), range, read-out: Cmax [range]
  Cmax: 41.3 to 113 ng/mL
[3]; 120 mg, Cohort 2 (120 mg), mean ± SD, read-out: AUC(0-T)
  AUC(0-t): 3230 ± 1540 ng·h/mL
[3]; 120 mg, Cohort 2 (120 mg), mean ± SD, read-out: AUC(0-¥)
  AUC: 3280 ± 1580 ng·h/mL
[3]; 120 mg, Cohort 2 (120 mg), mean ± SD, read-out: Half-life (converted)
  half-life: 30.4 ± 9.14 h
[3]; 120 mg, Cohort 2 (120 mg), mean ± SD, read-out: Tmax
  Tmax: 2.99 ± 1.23 h
[3]; 120 mg, Cohort 2 (120 mg), mean ± SD, read-out: Vd/F
  Vd/F: 2110 ± 1640 L
[3]; 120 mg, Cohort 2 (120 mg), range, read-out: AUC(0-T) [range]
  AUC(0-t): 1560 to 5640 ng·h/mL
[3]; 120 mg, Cohort 2 (120 mg), range, read-out: AUC(0-¥) [range]
  AUC: 1600 to 5770 ng·h/mL
[3]; 120 mg, Cohort 2 (120 mg), range, read-out: Half-life [range]
  half-life: 21.9 to 48.3 h
[3]; 120 mg, Cohort 2 (120 mg), range, read-out: Tmax [range]
  Tmax: 0.98 to 4.02 h
[3]; 120 mg, Cohort 2 (120 mg), range, read-out: Vd/F [range]
  Vd/F: 824 to 5240 L
[3]; 120 mg, Cohort 2 (120 mg), mean ± SD, read-out: Cmax
  Cmax: 173 ± 30.7 ng/mL
[3]; 120 mg, Cohort 2 (120 mg), range, read-out: Cmax [range]
  Cmax: 139 to 230 ng/mL
[3]; 180 mg, Cohort 3 (180 mg), mean ± SD, read-out: AUC(0-T)
  AUC(0-t): 6520 ± 2910 ng·h/mL
[3]; 180 mg, Cohort 3 (180 mg), mean ± SD, read-out: AUC(0-¥)
  AUC: 6890 ± 3490 ng·h/mL
[3]; 180 mg, Cohort 3 (180 mg), mean ± SD, read-out: Half-life (converted)
  half-life: 23.9 ± 5.54 h
[3]; 180 mg, Cohort 3 (180 mg), mean ± SD, read-out: Tmax
  Tmax: 4.41 ± 1.8 h
[3]; 180 mg, Cohort 3 (180 mg), mean ± SD, read-out: Vd/F
  Vd/F: 1030 ± 365 L
[3]; 180 mg, Cohort 3 (180 mg), range, read-out: AUC(0-T) [range]
  AUC(0-t): 3720 to 10400 ng·h/mL
[3]; 180 mg, Cohort 3 (180 mg), range, read-out: AUC(0-¥) [range]
  AUC: 3730 to 12300 ng·h/mL
[3]; 180 mg, Cohort 3 (180 mg), range, read-out: Half-life [range]
  half-life: 19.3 to 34.9 h
[3]; 180 mg, Cohort 3 (180 mg), range, read-out: Tmax [range]
  Tmax: 3 to 8 h
[3]; 180 mg, Cohort 3 (180 mg), range, read-out: Vd/F [range]
  Vd/F: 581 to 1610 L
[3]; 180 mg, Cohort 3 (180 mg), mean ± SD, read-out: Cmax
  Cmax: 268 ± 46.9 ng/mL
[3]; 180 mg, Cohort 3 (180 mg), range, read-out: Cmax [range]
  Cmax: 205 to 338 ng/mL
[3]; opioid-dependent patients, 60, 120, 180 mg
  Maximum serum concentration of noribogaine (Cmax) versus dose: increased in a dose-dependent manner
[4]; opioid-dependent patients, 120 mg
  withdrawal symptoms (COWS, OOWS, SOWS), first six hours following dosing: fewer withdrawal symptoms than the other patients
[4]; opioid-dependent patients, 60, 120 or 180 mg
  withdrawal symptoms (COWS, OOWS, SOWS), noribogaine compared with placebo: Patients administered placebo generally experienced more withdrawal symptoms than patients who were administered noribogaine
